According to EPA's ToxValDB 9.5 (doi:10.2903/j.efsa.2006.56r):
Where “and” joins values, the source holds several entries; their conditions need not be identical. Equal entries are not always repeated.

How the values were obtained:
Colinus virginianus = settings: for LC50: diet
Rattus norvegicus = settings: for LD50: acute, mortality
Oryctolagus sp. = settings: developmental; development
Plant = settings: acute
Pontoscolex corethrurus = settings: for LC50: acute, mortality
Apis mellifera = settings: acute; for LD50: mortality
Tagia sp. = settings: chronic/long-term
Anas platyrhynchos = settings: acute; oral; unspecified; mortality
Anatidae = settings: reproductive
[1] = chronic, duration: 2 years, oral, diet, M, organ weight

| Compound | LC50 (Colinus virginianus; acute, oral, mortality) [mg/kg-day] | LD50 (Colinus virginianus; acute, oral, mortality) [mg/kg] | LD50 (Rattus norvegicus; oral) [mg/kg] | NOAEL (Rattus norvegicus; chronic) [mg/kg-day] | NOAEL (Rattus norvegicus; [1]) [mg/kg-day] | NOAEL (Oryctolagus sp.) [mg/kg-day] | LEC (Plant) [µg/L] | LC50 (Pontoscolex corethrurus) [mg/kg] | NOEC (Pontoscolex corethrurus; chronic/long-term) [mg/kg] | LEC (Apis mellifera; dermal) [µg/piece] | LD50 (Apis mellifera; oral, unspecified) [µg/piece] | NOEC (Tagia sp.) [mg/kg] | NOEC (Colinus virginianus; reproduction developmental) [mg/kg-day] | NOAEL (Rattus norvegicus; reproduction developmental, reproduction) [mg/kg-day] | NOAEL (Rattus norvegicus; subchronic, duration: 13 weeks, oral, diet, M/F, histopathology: nonneoplastic) [mg/kg-day] | LD50 (Anas platyrhynchos) [mg/kg] | LEC (acute) | LEC (chronic) | NOEC (Anatidae) [mg/kg-day] | LD50 (Apis mellifera; dermal) [µg/piece] |
| --- | --- | --- | --- | --- | --- | --- | --- | --- | --- | --- | --- | --- | --- | --- | --- | --- | --- | --- | --- | --- |
| CCCCOCCOC(=O)COc1nc(Cl)c(Cl)cc1Cl [Triclopyr butotyl] | 1890 | 735 | 803 | 5 | 3 | 30 | 2200 | > 521 | 9.6 | > 100 | > 100 | – | – | – | – | – | – | – | – | – |
| O=C(O)COc1nc(Cl)c(Cl)cc1Cl [Triclopyr] | 1030 | – | 630 | – | 3 | 30 | – | > 983 | – | – | > 100 | 9.6 | 500 | 25 | 5 | 1700 | 117 mg/L and > 131 mg/L and 75.8 mg/L | 46.3 mg/L and 48.5 mg/L | 30 | > 100 |
